Laboratory results published in patent US11072581B2, “N-acyl-arylsulfonamide derivatives as aminoacyl-tRNA synthetase inhibitors” (Oxford Drug Design Limited, priority 2015, dated 2021).
Where a name gives a salt, the structure may show the parent alone. Read-outs that look alike come from different tables or passages of the source.

Experiments:
[1] = biological target: T1, EcoLRS (leucyl-tRNA synthetase from Escherichia coli) (Escherichia coli, UniProt P07813); test: aaRS aminoacylation assay (ATP consumption), EcoLRS; type: biochemical
T1 construct: made in house; host or cells: Escherichia coli M15
Method: (§1) The compounds have been tested for antibacterial activity in vitro as aminoacyl-tRNA synthetases (aaRS) inhibitors following the following process.
(§2) Leucyl-, valyl- and isoleucyl-tRNA synthetases (LRS, VRS and IRS, respectively) from Escherichia coli (Eco) and Staphylococcus aureus (Sau).
(§3) Escherichia coli M15 cells transformed with plasmid pQE-60, or pQE-70, containing the open-reading frame sequence of one targeted aaRS were induced with 1 mM IPTG (Isopropyl β-D-1-thiogalactopyranoside) for 3 h at 37° C. Bacterial cells were harvested and lysed with 20 mM NaH2PO4 (pH 8.0), 200 mM NaCl, 10 mM imidazole and protease inhibitor cocktail (Roche). Pathogenic aaRS was purified by nickel affinity standard chromatography. Protein concentration was determined by spectrophotometry.
(§4) tRNA^Leu, tRNA^Val and tRNA^Ile from E. coli and S. aureus were transcribed in vitro for 4 h at 37° C. using T7 RNA polymerase. Transcription reaction contained 40 mM Tris-HCl (pH 8.0), 22 mM MgCl2, 1 mM spermidine, 5 mM DTT, 0.01% Triton X-100, 4 mM GTP, 4 mM ATP, 4 mM UTP, 4 mM CTP, 16 mM GMP, […] T7 RNA polymerase and 150 μg BstNI digested plasmid. Once finished, the reaction was applied on a 6% polyacrylamide-8 M urea denaturing gel to purify the transcribed tRNA and discard any impurities. Purified tRNA was quantified with Nanodrop 2000 (Thermo Scientific).
(§5) The aminoacylation reaction catalyzed by aminoacyl-tRNA synthetases (aaRS) takes place in two steps. In the first step, aaRS activates its cognate amino acid with ATP; and in the second step the activated amino acid is loaded to its corresponding tRNA. This reaction can be summarized as follows: ARS+aa+ATP=ARS-aa-AMP+PPi ARS-aa-AMP+tRNA=aa-tRNA+AMP+ARS [2] (ARS, Aminoacyl-tRNA synthetase; aa, amino acid; ARS-aa-AMP, enzyme-bound to aminoacyl-adenylate; aa-tRNA, aminoacyl-tRNA).
(§6) The activity of the pathogenic aaRSs was monitored by measuring the ATP consumption rate, since this consumption is directly proportional to the activity of the aaRS. If the tested compound, at a single point concentration of 50 μM, is inhibiting the aminoacylation reaction, there is a decrease in the ATP consumption, compared to the control reaction without compound, allowing the calculation of an inhibition ratio.
(§7) When the inhibition ratio for a given compound was above 80%, IC50 determination was performed with the same enzymatic assay (using the commercial kit Kinase RR from BioThema AB, Sweden) in the presence of serial dilutions of inhibitor. Known inhibitors of LRS, VRS or IRS were used as a positive control of the assay. The IC50 was calculated based on nonlinear regression analysis.

[2] = biological target: T2, EcoIRS (isoleucyl-tRNA synthetase from Escherichia coli) (Escherichia coli, UniProt P00956); test: aaRS aminoacylation assay (ATP consumption), EcoIRS; type: biochemical; settings: i.a. = inactive at a concentration below 50 uM
T2 construct: made in house; host or cells: Escherichia coli M15
Method: as §1, §2, §3, §4, §5, §6, §7

[3] = biological target: T3, EcoVRS (valyl-tRNA synthetase from Escherichia coli) (Escherichia coli, UniProt P07118); test: aaRS aminoacylation assay (ATP consumption), EcoVRS; type: biochemical; settings: i.a. = inactive at a concentration below 50 uM
T3 construct: made in house; host or cells: Escherichia coli M15
Method: as §1, §2, §3, §4, §5, §6, §7

[4] = biological target: T4, SauIRS (isoleucyl-tRNA synthetase from Staphylococcus aureus) (Staphylococcus aureus, UniProt P41972); test: aaRS aminoacylation assay (ATP consumption), SauIRS; type: biochemical; settings: i.a. = inactive at a concentration below 50 uM
T4 construct: made in house; host or cells: Escherichia coli M15
T4 sequence (P41972 1-917): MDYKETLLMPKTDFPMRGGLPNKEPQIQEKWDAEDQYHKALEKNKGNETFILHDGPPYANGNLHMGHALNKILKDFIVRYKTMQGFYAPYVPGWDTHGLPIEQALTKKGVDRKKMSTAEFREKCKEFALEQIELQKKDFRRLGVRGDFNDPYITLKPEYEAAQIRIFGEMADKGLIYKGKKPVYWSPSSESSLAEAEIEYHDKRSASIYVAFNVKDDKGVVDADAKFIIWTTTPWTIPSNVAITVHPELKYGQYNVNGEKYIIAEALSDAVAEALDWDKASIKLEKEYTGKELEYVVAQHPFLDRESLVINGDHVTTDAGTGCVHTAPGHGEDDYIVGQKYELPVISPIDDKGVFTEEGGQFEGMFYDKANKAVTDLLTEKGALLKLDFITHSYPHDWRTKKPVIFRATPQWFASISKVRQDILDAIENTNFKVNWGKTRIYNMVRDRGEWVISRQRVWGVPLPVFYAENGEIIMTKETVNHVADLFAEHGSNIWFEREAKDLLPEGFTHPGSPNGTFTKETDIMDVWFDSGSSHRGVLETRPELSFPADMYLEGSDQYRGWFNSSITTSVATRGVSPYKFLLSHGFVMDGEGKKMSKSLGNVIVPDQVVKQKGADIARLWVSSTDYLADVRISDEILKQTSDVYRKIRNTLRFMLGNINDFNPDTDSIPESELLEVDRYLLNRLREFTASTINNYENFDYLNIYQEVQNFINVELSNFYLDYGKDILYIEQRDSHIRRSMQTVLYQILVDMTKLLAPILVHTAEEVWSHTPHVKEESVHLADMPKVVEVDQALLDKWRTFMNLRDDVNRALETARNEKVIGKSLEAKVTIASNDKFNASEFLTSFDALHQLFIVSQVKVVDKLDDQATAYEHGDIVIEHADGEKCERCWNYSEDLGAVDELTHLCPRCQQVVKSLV
Method: as §1, §2, §3, §4, §5, §6, §7

[5] = i.a. = inactive at a concentration below 50 uM, read-out: IC50 EcoLRS

T2 sequence (P00956 whole entry): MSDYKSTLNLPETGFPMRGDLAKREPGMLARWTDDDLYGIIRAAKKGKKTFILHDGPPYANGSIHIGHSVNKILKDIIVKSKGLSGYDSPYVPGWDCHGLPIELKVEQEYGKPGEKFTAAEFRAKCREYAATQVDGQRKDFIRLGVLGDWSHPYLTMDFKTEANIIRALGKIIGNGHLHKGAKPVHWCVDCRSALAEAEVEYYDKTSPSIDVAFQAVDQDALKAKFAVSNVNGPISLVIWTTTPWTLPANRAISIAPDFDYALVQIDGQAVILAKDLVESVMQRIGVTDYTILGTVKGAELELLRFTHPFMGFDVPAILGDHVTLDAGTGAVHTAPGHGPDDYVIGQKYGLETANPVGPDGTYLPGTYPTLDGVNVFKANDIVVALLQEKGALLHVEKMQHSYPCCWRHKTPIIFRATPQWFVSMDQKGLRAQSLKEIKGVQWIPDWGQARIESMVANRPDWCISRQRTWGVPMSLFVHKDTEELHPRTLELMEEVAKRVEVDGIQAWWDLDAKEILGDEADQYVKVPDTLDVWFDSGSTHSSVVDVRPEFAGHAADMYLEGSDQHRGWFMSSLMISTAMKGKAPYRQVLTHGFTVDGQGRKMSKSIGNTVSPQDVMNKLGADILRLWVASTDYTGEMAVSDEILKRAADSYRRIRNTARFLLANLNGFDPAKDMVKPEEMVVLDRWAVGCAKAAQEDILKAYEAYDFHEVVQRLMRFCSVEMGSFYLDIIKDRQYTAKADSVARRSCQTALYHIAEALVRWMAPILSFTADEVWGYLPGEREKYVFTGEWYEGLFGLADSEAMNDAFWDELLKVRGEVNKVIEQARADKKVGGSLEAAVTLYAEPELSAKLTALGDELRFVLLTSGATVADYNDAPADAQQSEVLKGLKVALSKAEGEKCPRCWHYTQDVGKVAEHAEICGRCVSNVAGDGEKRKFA
T3 sequence (P07118 whole entry): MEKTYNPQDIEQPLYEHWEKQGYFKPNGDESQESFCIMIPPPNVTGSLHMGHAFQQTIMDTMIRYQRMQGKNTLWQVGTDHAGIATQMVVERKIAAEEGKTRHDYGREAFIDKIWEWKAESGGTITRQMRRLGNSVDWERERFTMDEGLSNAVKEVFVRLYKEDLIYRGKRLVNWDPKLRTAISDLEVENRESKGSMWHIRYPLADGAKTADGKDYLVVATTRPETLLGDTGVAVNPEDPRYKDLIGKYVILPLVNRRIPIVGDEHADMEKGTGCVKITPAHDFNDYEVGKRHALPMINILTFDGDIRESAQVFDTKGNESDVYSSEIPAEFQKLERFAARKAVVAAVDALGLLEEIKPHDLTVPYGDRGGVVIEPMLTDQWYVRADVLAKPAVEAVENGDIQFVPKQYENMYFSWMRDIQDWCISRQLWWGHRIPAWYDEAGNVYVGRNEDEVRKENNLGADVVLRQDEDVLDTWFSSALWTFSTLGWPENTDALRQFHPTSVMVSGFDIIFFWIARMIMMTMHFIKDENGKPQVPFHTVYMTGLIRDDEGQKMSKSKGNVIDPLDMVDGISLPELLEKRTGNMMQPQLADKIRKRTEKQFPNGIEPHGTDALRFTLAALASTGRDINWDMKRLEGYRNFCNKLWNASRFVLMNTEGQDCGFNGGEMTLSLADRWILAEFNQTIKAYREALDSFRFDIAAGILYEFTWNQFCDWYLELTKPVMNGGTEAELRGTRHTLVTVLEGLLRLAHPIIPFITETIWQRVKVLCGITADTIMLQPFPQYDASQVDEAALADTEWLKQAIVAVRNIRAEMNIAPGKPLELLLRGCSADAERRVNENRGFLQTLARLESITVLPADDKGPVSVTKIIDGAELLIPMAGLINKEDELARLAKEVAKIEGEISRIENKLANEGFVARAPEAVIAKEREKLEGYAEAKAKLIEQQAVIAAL
T1 sequence (P07813 whole entry): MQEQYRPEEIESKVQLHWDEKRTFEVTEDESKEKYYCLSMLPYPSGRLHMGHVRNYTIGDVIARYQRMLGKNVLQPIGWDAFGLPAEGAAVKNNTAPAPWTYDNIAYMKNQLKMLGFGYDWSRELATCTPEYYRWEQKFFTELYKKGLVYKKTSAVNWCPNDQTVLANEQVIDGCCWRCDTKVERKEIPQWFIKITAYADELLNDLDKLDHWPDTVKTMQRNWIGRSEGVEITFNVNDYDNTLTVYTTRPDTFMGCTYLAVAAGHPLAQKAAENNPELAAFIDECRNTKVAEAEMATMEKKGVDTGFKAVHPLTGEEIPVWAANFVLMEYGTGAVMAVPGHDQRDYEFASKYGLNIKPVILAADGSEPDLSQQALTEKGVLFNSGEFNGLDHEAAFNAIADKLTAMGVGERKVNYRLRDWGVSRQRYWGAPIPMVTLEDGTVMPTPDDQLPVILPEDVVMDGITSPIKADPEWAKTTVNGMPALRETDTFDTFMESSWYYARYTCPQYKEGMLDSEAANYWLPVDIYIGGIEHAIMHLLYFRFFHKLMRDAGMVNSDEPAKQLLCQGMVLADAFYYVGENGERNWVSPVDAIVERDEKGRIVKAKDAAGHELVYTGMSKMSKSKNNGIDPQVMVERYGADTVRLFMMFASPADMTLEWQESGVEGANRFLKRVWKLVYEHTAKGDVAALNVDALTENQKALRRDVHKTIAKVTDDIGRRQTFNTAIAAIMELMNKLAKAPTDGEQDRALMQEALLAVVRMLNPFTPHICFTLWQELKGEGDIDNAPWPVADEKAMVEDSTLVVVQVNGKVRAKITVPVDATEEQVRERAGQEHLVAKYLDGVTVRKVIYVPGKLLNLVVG

SMILES	IC50 [1, 5]	IC50 EcoIRS [2]	IC50 EcoVRS [3]	IC50 SauIRS [4]	IC50 [1]	melting point
CC(C)C[C@H](N)C(=O)NS(=O)(=O)c1ccccc1 [Compound 5.1, (S)-2-amino-4-methyl-N-(phenylsulfonyl)pentanamide hydrochloride]	35 nM	i.a.	i.a.	i.a.		
CC(C)C[C@H](N)C(=O)NS(=O)(=O)c1cccc(Cl)c1 [Compound 5.4]		i.a	i.a	i.a	31 nM	
CC(C)C[C@H](N)C(=O)NS(=O)(=O)c1ccccc1Cl [Compound 5.5]		i.a	i.a	i.a	121 nM	
CC(C)C[C@H](N)C(=O)NS(=O)(=O)c1ccccc1F [Compound 5.6]		i.a	i.a	i.a	233 nM	
CCCCc1ccc(S(=O)(=O)NC(=O)[C@@H](N)CC(C)C)cc1 [Compound 5.7]		i.a	i.a	i.a	668 nM	
CC(C)C[C@H](N)C(=O)NS(=O)(=O)c1cccc2ccccc12 [Compound 5.13]		i.a	i.a	i.a	59 nM	
CC(C)C[C@H](N)C(=O)NS(=O)(=O)c1cccc2c(N(C)C)cccc12 [Compound 5.16, (S)-2-amino-N-((5-(dimethylamino)naphthalen-1-yl)sulfonyl)-4-methylpentanamide hydrochloride]		i.a	i.a	i.a	4100 nM	
CC(C)C[C@H](N)C(=O)NS(=O)(=O)c1cccc2cccnc12 [Compound 5.19]		i.a	i.a	i.a	780 nM	
CC(C)C[C@H](N)C(=O)NS(=O)(=O)c1ccc(Br)c2ccncc12 [Compound 5.22, trifluoroacetate]		i.a	i.a	i.a	2400 nM	
CC(C)C[C@H](N)C(=O)NS(=O)(=O)c1cccc2cc(C(N)=O)ncc12 [Compound 5.24, 8-(N-(L-Leucyl)sulfamoyl)isoquinoline-3-carboxamide]		i.a	i.a	i.a	11 nM	
CC(C)C[C@H](N)C(=O)NS(=O)(=O)c1cccc2c1CNCC2 [Compound 5.26, (S)-2-amino-4-methyl-N-((1,2,3,4-tetrahydroisoquinolin-8-yl)sulfonyl) pentanamide trifluoroacetate]		i.a	i.a	i.a	176 nM	
Cc1cc(-c2cccc(S(=O)(=O)NC(=O)[C@@H](N)CC(C)C)c2)nc(N)n1 [Compound 5.35, (S)-2-amino-N-((3-(2-amino-6-methylpyrimidin-4-yl)phenyl)sulfonyl)-4-methylpentanamide]			i.a.	i.a.	14 nM	241 to 242 °C (dec.)
COc1cc(-c2cccc(S(=O)(=O)NC(=O)[C@@H](N)CC(C)C)c2)nc(N)n1 [Compound 5.36]			i.a.	i.a.	12 nM	87 to 88 °C (dec.)
CC(C)C[C@H](N)C(=O)NS(=O)(=O)c1cccc(-c2ccnc(N)n2)c1 [Compound 5.37]	54 nM		i.a.	i.a.		224 to 226 °C (dec.)
CC(C)C[C@H](N)C(=O)NS(=O)(=O)c1cccc(-c2nc(N)nc3nc[nH]c23)c1 [Compound 5.38]			i.a.	i.a.	84 nM	117 °C (dec.)
Cc1cc(-c2cccc(S(=O)(=O)NC(=O)[C@@H](N)CC(C)C)c2)ncn1 [Compound 5.39]			i.a.	i.a.	45 nM	246 °C
CC[C@H](C)[C@H](N)C(=O)NS(=O)(=O)c1cccc(-c2cc(C)nc(N)n2)c1 [Compound 5.40]			i.a.	i.a.	21800 nM	97 °C
CC(C)C[C@H](N)C(=O)NS(=O)(=O)c1cccc(-c2cc(-c3ccccc3)nc(N)n2)c1 [Compound 5.41]			i.a.	i.a.	220 nM	186 to 188 °C (dec.)
CC(C)C[C@H](N)C(=O)NS(=O)(=O)c1cccc(-c2ccncc2)c1 [Compound 5.42]	13 nM		i.a.	i.a.		151 °C (dec.)
CC(C)C[C@H](N)C(=O)NS(=O)(=O)c1cccc(-c2ccnc(N)c2)c1 [Compound 5.43]			i.a.	i.a.	2 nM	141 °C (dec.)
CC(C)C[C@H](N)C(=O)NS(=O)(=O)c1cccc(-c2cccc(N)n2)c1 [Compound 5.44]			i.a.	i.a.	6 nM	148 °C (dec.)
CC(C)C[C@H](N)C(=O)NS(=O)(=O)c1cccc(-c2cc(N)nc(N)n2)c1 [Compound 5.45]			i.a.	i.a.	20 nM	234 °C (dec.)
CC(C)C[C@H](N)C(=O)NS(=O)(=O)c1cccc(-c2cc(N)ncn2)c1 [Compound 5.46]			i.a.	i.a.	10 nM	
CCc1cc(-c2cccc(S(=O)(=O)NC(=O)[C@@H](N)CC(C)C)c2)nc(N)n1 [Compound 5.47]			i.a.	i.a.	11 nM	
CC(C)C[C@H](N)C(=O)NS(=O)(=O)c1cccc(-c2ncnc(N)n2)c1 [Compound 5.48]			i.a.	i.a.	3.4 nM	
CC(C)C[C@H](N)C(=O)NS(=O)(=O)c1cccc(-c2ccnc(Cl)n2)c1 [Compound 5.49]			i.a.	i.a.	64 nM	231 to 238 °C (dec.)
CC(C)C[C@H](N)C(=O)NS(=O)(=O)c1cccc(-c2ccnc(O)n2)c1 [Compound 5.50]			i.a.	i.a.	63 nM	191 to 221 °C (dec.)
